# Several values for one entry are separate records, joined by “and”; a condition that tells them apart may be missing. Identical values can stand only once. Entries after “also recorded” stand apart in the source; their conditions may differ.
# Assays:
# [1] = test system: B16 F0 melanoma xenograft; experiment: B16 F0 melanoma xenograft model; assay type: in vivo, C57B6J mice; settings: twelve days; for % reduction of tumor burden (w.r.t control): listed as LI-51255
# Procedure: In vivo efficacy of LI-51255 against melanoma growth was evaluated in B16 F0 melanoma xenograft model of C57B6J mice. C57B6J mice of 6 weeks age (body weight 18-22 g) were purchased from National Institute of Nutrition (NIN), Hyderabad (India). Animals study protocols were approved by Institutional Ethics Committee (IAEC). All the studies were performed in compliance with the Committee for the Purpose of Control and Supervision of Experiments on Animals (CPCSEA) guidelines and OECD guidelines. Animals were allowed free access to standard feed and provided charcoal filtered and UV exposed water ad libitum. The animals were maintained at a controlled temperature (24-26° C.), humidity (45-70%), and 12 h/12 h of light/dark cycle.
# To induce the melanoma tumor formation, sub-confluent B16F0 cells were harvested by brief trypsinization and 1×10^6 cells were injected subcutaneously in 0.2 mL phosphate-buffered saline. Drug treatment was started after development of palpable tumors (3-5 days after implantation of the cells). Drugs were prepared in phosphate-buffered saline (10% DMSO, v/v) and either 75 mg/kg of DTIC or different doses of LI-51255 (10 or 20 mg/kg) was administered daily through intra-peritoneal route. Vehicle treated control animals received only 10% DMSO in phosphate buffered saline. After twelve days of treatment, the animals were sacrificed by CO2 inhalation and tumors were excised and weighed.
# MDA-MB-231 [2] = experiment: MDA-MB-231 clone (colony) formation in vitro; assay type: cell-based, human; settings: 1.0, 1.5, 2.0, 2.5 μg/ml, 8 days; listed as LI-51255
# Procedure: Inhibitory efficacy in clone formation of LI-51255 was tested by following the procedure described earlier with some modifications (Wu et al. 2005). Briefly, MDA-MB-231 cells were harvested and seeded into 6-well plates (100 cells/ml). The cells were allowed to grow for 4 days and thereafter, the cells were incubated with DMEM containing either 0.5% DMSO or 25 μg/ml AKBA or different concentrations (1.0, 1.5, 2.0, 2.5 μg/ml) of LI-51255 for further 8 days. Fresh medium containing test agents was replaced at every 24 h. Finally, the wells were washed three times with PBS and fixed in methanol for 15 min. The cells were stained with Giemsa stain and observed under microscope. The image of the stained wells were captured digitally (Kodak Image Station 4000MM, Carestream Health Inc., New Haven, Conn.) and number of colonies were counted and analyzed by using NIH Image J software.
# VEGF = settings: HUVEC, 24 h, immunoblot; listed as LI51255
# Procedure: Equal number of HUVEC human primary endothelial cells was plated in 35 mm culture dishes. The cells exposed to either 0.5% DMSO as vehicle or LI-51255 for 24 h. The cells were lysed in cell lysis buffer. The protein concentration of each lysate was determined by the BCA method (BioRad, Hercules, Calif.). Equal amount of cell lysates proteins was resolved in SDS-PAGE and the transferred proteins on nitrocellulose membrane were reacted with human anti-VEGF antibody (Cell Signaling Technology, Beverly, Mass.) overnight at 4° C. Immunoreactive proteins were detected using were developed with Super SignalWest Pico Chemiluminescent substrate (Pierce Biotechnology Inc.) and the band intensities were analyzed using Molecular Imaging Software, version 4.0 (Eastman Kodak Company, Rochester, N.Y.). Relative density was determined by normalization of the density of each blot with that of corresponding β-actin.
# MCF-7 = experiment: MTT cell proliferation assay, MCF-7; assay type: cell-based, human; settings: Table 4
# In short: (§1)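 Cells exposed three days to compounds at concentrations up to 10 μg/ml (≤0.5% DMSO), then 0.5 mg/ml MTT for 4 h at 37 °C. Solubilized formazan read at 540 nm; IC50 calculated from quadruplicate wells.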
# MDA-MB-231 [3] = experiment: MTT cell proliferation assay, MDA-MB-231; assay type: cell-based, human; settings: Table 4
# In short: as §1
# [4] = test system: B16 murine melanoma cells; experiment: Cell cycle analysis by flow cytometry; assay type: cell-based; settings: 24 h
# Procedure: For flow cytometry, cells were harvested after the treatment period, washed with phosphate buffered saline (PBS), and adjusted the cell count at 2×10^6 cells per milliliter. The cells were fixed in 70% ethanol for 30 min at 4° C. Cells were then washed two times with PBS and stained with 0.5 μg/ml propidium iodide at 37° C. for 30 min and analyzed by flow cytometry. Data were acquired on a FACS Scan flow cytometer (Becton Dickinson) and analyzed by using the Cellquest software.
# [5] = test system: Human umbilical vein endothelial cells (HUVEC); experiment: In vitro capillary-like tube formation assay; assay type: cell-based; settings: HUVEC on Cultrex, 1, 2.5 and 5 μg/ml, 16 h; listed as LI-51255
# Procedure: In vitro capillary formation assay was performed with Human umbilical vein endothelial cells (HUVEC), cultured on 10 mg/ml basement membrane extract (BME—Cultrex®, R&D Systems, USA) bed. The protocol of in vitro endothelial tube formation assay was the same as described earlier with some modifications (Reference). Briefly, four hundred microliters of Cultrex was coated at 4° C. in each well of 24-well culture plate and allowed to gel at 37° C. for 1 h. HUVECs were plated at a density of 7.5×10^4 cells per well with 400 μl of DMEM supplemented with 10% fetal bovine serum and 4.5 g/l D-glucose. The cells were then treated with either 0.5% DMSO or different concentrations of LI-51255 for 16 hours. Pictures were taken under a Nikon Eclipse TS 100 microscope equipped with a Nikon Coolpix camera (FIG. 1B).
# AKT pathway = AKT pathway western immunoblot in MDA-MB-231 cells; assay type: cell-based, human; settings: MDA-MB-231, 10 μg/ml, 0-240 min
# Procedure: Equal number of MDA-MB-231 human breast tumor cells (ER-) was plated in 25 cm^2 cell culture flasks. The cells treated with either 0.5% DMSO as vehicle or 10 μg/ml of LI-51255 for 0, 5, 10, 20, 30, 60, 120 and 240 min. The cells were lysed in cell lysis buffer.
# [6] = 10 mg/kg daily intra-peritoneal
# [7] = 20 mg/kg daily intra-peritoneal
smiles,measurement,setting,value
"CC(=O)OC1CC[C@@]2(C)C(CC[C@]3(C)C2C(=O)C=C2C4[C@@H](C)[C@H](C)CC[C@]4(C)CC[C@]23C)[C@@]1(C)C(=O)NCCN (stereo partly drawn) [Analog 21, N-(3-O-Acetyl-11-keto-[beta]-boswelloyl)-ethylenediamine]",Average weight of tumor,[1]; [6],4.575 gm
same,% reduction of tumor burden (w.r.t control),[1]; [6],27.25% and 27.253%
same,Average weight of tumor,[1]; [7],3.050 gm
same,% reduction of tumor burden (w.r.t control),[1]; [7],51.5% and 51.502%
same,MDA-MB-231 colony formation,MDA-MB-231 [2],potentially inhibits the growth and development; also recorded: inhibition of MDA-MB-231 colony formation
same,VEGF protein expression,VEGF,strongly inhibited
same,IC50 values MCF-7,MCF-7,12.98 µg/mL
same,IC50 values MDA-MB-231,MDA-MB-231 [3],3.45 µg/mL
same,cell cycle progression,[4],arrests the growth of B16 murine melanoma cells at the subG1 phase
same,G1,[4]; LI-51255 5 (mg/ml),74.74
same,G2/M,[4]; LI-51255 5 (mg/ml),12.2
same,S,[4]; LI-51255 5 (mg/ml),11.18
same,Sub G1,[4]; LI-51255 5 (mg/ml),1.7
same,G1,[4]; LI-51255 10 (mg/ml),60.25
same,G2/M,[4]; LI-51255 10 (mg/ml),9.19
same,S,[4]; LI-51255 10 (mg/ml),10.87
same,Sub G1,[4]; LI-51255 10 (mg/ml),19.76
same,capillary-like tube formation,[5],dose-dependent inhibition; also recorded: inhibits capillary-like tube formation
same,AKT protein expression,AKT pathway,remains the same
same,phospho-raf (ser 259) expression,AKT pathway,up-regulation
same,phosphorylated AKT (ser 473) protein expression,AKT pathway; listed as LI-51255,deactivates AKT pathway; also recorded: time dependent down regulation

# Reference: US8748598B2, “Analogs of 3-O-acetyl-11-keto-beta-boswellic acid” (Laila Nutraceuticals, priority 2004, dated 2014)
